The subject of one experiment is BRD4BD1 and BRD4BD2. Particulars: Filippakopoulos, Qi et al. 2010; cited from earlier work.
The test system of experiment [1] is BRD2BD1, BRD2BD2, BRD3BD1, BRD3BD2, BRD4BD1, BRD4BD2. Kind of experiment: EGFP/mCherry reporter cellular degradation across individual BET bromodomains. Type of experiment: cell-based, human. Particulars: for degradation activity across BET bromodomains: individual bromodomains of BRD2, BRD3, BRD4; for selectivity of BRD4 degradation over BRD2 and BRD3: EGFP/mCherry reporter assay. As to the method:
(§1) Stable cell lines expressing eGFP-protein fusion and mCherry reporter were generated using Flip-In 293 system. Plasmid (0.3 μg) and pOG44 (4.7 μg) DNA were preincubated in 100 μL of Opti-MEM I (Gibco, Life Technologies) media containing 0.05 mg/ml Lipofectamine 2000 (Invitrogen) for 20 min and added to Flip-In 293 cells containing 1.9 ml of DMEM media (Gibco, Life Technologies) per well in a 6-well plate format (Falcon, 353046). Cells were propagated after 48 h and transferred into a 10 cm^2 plate (Corning, 430165) in DMEM media containing 50 μg/ml of Hygromycin B (REF 10687010, Invitrogen) as a selection marker. Following 2-3 passage cycle FACS (FACSAria II, BD) was used to enrich for cells expressing eGFP and mCherry.
(§2) Cells were seeded at 30-50% confluency in either 24, 48 or 96 well plates (3524, 3548, 3596 respectively, Costar) a day before compound treatment. Titrated compounds were incubated with cells for 5 h following trypsinisation and resuspention in DMEM media, transferred into 96-well plates (353910, Falcon) and analyzed by flow cytometer (guava easyCyte HT, Millipore). Signal from 5000 cells per well was acquired in singlicate or duplicate and the eGFP and mCherry florescence monitored. Data was analyzed using FlowJo (FlowJo, LCC). […] The eGFP protein abundance relative to mCherry was then quantified as a ten-fold amplified ratio for each individual cell using the formula: 10×eGFP/mCherry. The median of the ratio was then calculated per set, normalized to the median of the DMSO ratio, and is denoted as relative abundance. Standard deviation is calculated from four replicates (n=4) unless described otherwise.
On the technique in general: A reporter such as luciferase makes a cellular process visible.

Another experiment concerns the target T1, IKZF1Δ-CRBN (Homo sapiens, UniProt Q13422+Q96SW2, DEL197-239).
T1 construct: made in house; host or cells: Trichoplusia ni High-Five insect cells (baculovirus)
Description: TR-FRET CRBN-IKZF1Δ binding assay. As to the method: Before TR-FRET measurements were conducted, the reactions were incubated for 15 min at RT. After excitation of terbium fluorescence at 337 nm, emission at 490 nm (terbium) and 520 nm (BODIPY) were recorded with a 70 μs delay over 600 μs to reduce background fluorescence and the reaction was followed over 30 200 second cycles of each data point using a PHERAstar FS microplate reader (BMG Labtech). The TR-FRET signal of each data point was extracted by calculating the 520/490 nm ratio. The heterobifunctional nature of small molecule degraders results in a three-body binding equilibrium complicated by potential cooperativity or avidity effects arising from protein-protein interactions (Douglass, Miller et al. 2013), all of which precludes direct interpretation of the binding data. […] The peak height of TR-FRET dBET dose response data was calculated in GraphPad Prism 7 using Area Under Curve analysis for three independent replicates (n=3) and the mean peak height and standard deviation calculated.
The standard deviation in IKZF1A TR-FRET compound titrations was calculated from three biological replicates (n=3) as an average of 5 technical replicates per well per experiment, or as an average of 5 technical replicates of single experiment for unlabelled protein titrations.

The next experiment has as its system DDB1ΔB-CRBN / BRD4BD1. Kind of experiment: TR-FRET dimerization assay, CRBN with BRD4BD1 wild type and mutants (peak height). The class given is binding, human. The note with it: BRD4BD1 Q84 mutated to R (as in BRD2) or K, reference to WT. As to the method: Before TR-FRET measurements were conducted, the reactions were incubated for 15 min at RT. […] The TR-FRET signal of each data point was extracted by calculating the 520/490 nm ratio. […] The peak height of TR-FRET dBET dose response data was calculated in GraphPad Prism 7 using Area Under Curve analysis for three independent replicates (n=3) and the mean peak height and standard deviation calculated.
(In TR-FRET formats the signal depends on donor and acceptor labels being close together.)

Experiment [2] addresses T2, BRD2 (Homo sapiens, UniProt P25440).
T2 construct: endogenous in cells; host or cells: HEK293T
Kind of experiment: Western blot of BRD2 in HEK293T cells. The class given is cell-based. Particulars: immunoblot. As to the method:
(§3) HEK293T cells were seeded at 90% confluency in 12 well plates (353043, Falcon), left to attach for 1.5 h, followed by the compound treatment for 5 h. Primary and secondary antibodies used included anti-BRD4 at 1:1000 dilution (A301-985A-M, Bethyl Laboratories), anti-BRD2 at 1:2,000 dilution (A302-582A, Bethyl Laboratories), anti-BRD3 at 1:500 dilution (ab56342, Abcam), anti-GAPDH at 1:10,000 dilution (G8795, Sigma), IRDye680 Donkey anti-mouse at 1:10,000 dilution (926-68072, LiCor) and IRDye800 Goat anti-rabbit at 1:10,000 dilution (926-32211, LiCor).
Background: Immunoblotting shows a protein as a band on a membrane.

Experiment [3] relates to BRD3. Kind of experiment: BRD3 bromodomain EGFP/mCherry reporter cellular degradation assay. The class given is cell-based, human. The note with it: BRD3 bromodomain reporter cells. The procedure: as §1, with “Following 2-3 passage cycle FACS (FACSAria II, BD) was used to enrich for cells expressing eGFP and mCherry.” left out
as §2, with “The median of the ratio was then calculated per set, normalized to the median of the DMSO ratio, and is denoted as relative abundance.” left out

Another experiment deals with T3, BRD4 (Homo sapiens, UniProt O60885).
T3 construct: retains activity on endogenous full length BRD4; endogenous in cells; host or cells: HEK293T
Kind of experiment: Western blot of endogenous BRD4 in HEK293T cells. Type of experiment: cell-based. The note with it: 5 hours, immunoblot. As to the method: as §3

The target in a further experiment is T4, BRD4BD1 (Homo sapiens, UniProt O60885).
T4 construct: expressed in transfected cells
Description: BRD4BD1-EGFP/mCherry reporter cellular degradation assay (flow cytometry). Type of experiment: cell-based. Particulars: BRD4BD1-EGFP reporter cells. The procedure: as §1, with “Following 2-3 passage cycle FACS (FACSAria II, BD) was used to enrich for cells expressing eGFP and mCherry.” left out
as §2, with “The median of the ratio was then calculated per set, normalized to the median of the DMSO ratio, and is denoted as relative abundance.” left out

The test system of experiment [4] is BRD2. Kind of experiment: BRD2 bromodomain EGFP/mCherry reporter cellular degradation assay. Type of experiment: cell-based, human. Particulars: BRD2 bromodomain reporter cells. As to the method:
as §1, with “Following 2-3 passage cycle FACS (FACSAria II, BD) was used to enrich for cells expressing eGFP and mCherry.” left out
as §2, with “The median of the ratio was then calculated per set, normalized to the median of the DMSO ratio, and is denoted as relative abundance.” left out

The target of experiment [5] is T5, BRD3 (Homo sapiens, UniProt Q15059).
T5 construct: endogenous in cells; host or cells: HEK293T
Description: Western blot of BRD3 in HEK293T cells. The class given is cell-based. Particulars: immunoblot. As to the method:
as §3

Another experiment deals with T6, IKZF1Δ (Homo sapiens, UniProt Q13422+Q96SW2, DEL197-239).
T6 construct: expressed in transfected cells
Kind of experiment: IKZF1Δ-EGFP fusion protein cellular degradation assay. Type of experiment: cell-based. Particulars: HEK293T cells. As to the method: as §1, with “Following 2-3 passage cycle FACS (FACSAria II, BD) was used to enrich for cells expressing eGFP and mCherry.” left out
as §2, with “The median of the ratio was then calculated per set, normalized to the median of the DMSO ratio, and is denoted as relative abundance.” left out

For a further experiment, the system named is IKZF1, IKZF3 and ZFP91. Kind of experiment: Quantitative proteomics (TMT LC-MS3) in MM.1s cells. Particulars: 1 μM, five hours. The class given is cell-based, human. The procedure:
A micro-BCA assay (Pierce) was used to determine the final protein concentration in the cell lysate. […] Proteins were precipitated using methanol/chloroform. In brief, four volumes of methanol were added to the cell lysate, followed by one volume of chloroform, and finally three volumes of water.

Results on 9 compounds are retold here after US20200190136A1, “METHODS FOR GENERATING SMALL MOLECULE DEGRADERS AND DIMERIZERS” (DANA-FARBER CANCER INSTITUTE, INC., priority 2017, published 2020).

“Also recorded” adds a separate entry of the source. A value given as a limit tells only on which side of the number the result lay.

T1 sequence (Q96SW2 whole entry, stated change not applied): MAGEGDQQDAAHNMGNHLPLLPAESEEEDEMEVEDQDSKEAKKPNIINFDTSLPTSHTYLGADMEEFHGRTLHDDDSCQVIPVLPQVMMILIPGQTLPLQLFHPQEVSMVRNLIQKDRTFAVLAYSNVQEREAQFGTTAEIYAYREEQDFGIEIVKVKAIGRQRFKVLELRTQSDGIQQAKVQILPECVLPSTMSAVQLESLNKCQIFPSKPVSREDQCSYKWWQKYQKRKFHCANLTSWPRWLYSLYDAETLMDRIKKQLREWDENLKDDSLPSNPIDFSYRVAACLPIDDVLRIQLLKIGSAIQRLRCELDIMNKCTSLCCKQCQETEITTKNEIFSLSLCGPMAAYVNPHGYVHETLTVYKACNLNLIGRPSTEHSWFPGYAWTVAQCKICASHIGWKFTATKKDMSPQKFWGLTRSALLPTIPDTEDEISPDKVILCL
T1 sequence (Q13422 with tags, fused parts or gaps DEL197-239): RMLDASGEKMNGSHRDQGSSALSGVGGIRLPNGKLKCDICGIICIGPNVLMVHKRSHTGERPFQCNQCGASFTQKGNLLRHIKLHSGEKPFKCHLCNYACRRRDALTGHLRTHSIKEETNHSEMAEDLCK
T6 sequence (Q13422 with tags, fused parts or gaps DEL197-239): as above
T6 sequence (Q96SW2 whole entry, stated change not applied): as the sequence (Q96SW2 whole entry, stated change not applied) above
T6 sequence (Q16531 whole entry partner): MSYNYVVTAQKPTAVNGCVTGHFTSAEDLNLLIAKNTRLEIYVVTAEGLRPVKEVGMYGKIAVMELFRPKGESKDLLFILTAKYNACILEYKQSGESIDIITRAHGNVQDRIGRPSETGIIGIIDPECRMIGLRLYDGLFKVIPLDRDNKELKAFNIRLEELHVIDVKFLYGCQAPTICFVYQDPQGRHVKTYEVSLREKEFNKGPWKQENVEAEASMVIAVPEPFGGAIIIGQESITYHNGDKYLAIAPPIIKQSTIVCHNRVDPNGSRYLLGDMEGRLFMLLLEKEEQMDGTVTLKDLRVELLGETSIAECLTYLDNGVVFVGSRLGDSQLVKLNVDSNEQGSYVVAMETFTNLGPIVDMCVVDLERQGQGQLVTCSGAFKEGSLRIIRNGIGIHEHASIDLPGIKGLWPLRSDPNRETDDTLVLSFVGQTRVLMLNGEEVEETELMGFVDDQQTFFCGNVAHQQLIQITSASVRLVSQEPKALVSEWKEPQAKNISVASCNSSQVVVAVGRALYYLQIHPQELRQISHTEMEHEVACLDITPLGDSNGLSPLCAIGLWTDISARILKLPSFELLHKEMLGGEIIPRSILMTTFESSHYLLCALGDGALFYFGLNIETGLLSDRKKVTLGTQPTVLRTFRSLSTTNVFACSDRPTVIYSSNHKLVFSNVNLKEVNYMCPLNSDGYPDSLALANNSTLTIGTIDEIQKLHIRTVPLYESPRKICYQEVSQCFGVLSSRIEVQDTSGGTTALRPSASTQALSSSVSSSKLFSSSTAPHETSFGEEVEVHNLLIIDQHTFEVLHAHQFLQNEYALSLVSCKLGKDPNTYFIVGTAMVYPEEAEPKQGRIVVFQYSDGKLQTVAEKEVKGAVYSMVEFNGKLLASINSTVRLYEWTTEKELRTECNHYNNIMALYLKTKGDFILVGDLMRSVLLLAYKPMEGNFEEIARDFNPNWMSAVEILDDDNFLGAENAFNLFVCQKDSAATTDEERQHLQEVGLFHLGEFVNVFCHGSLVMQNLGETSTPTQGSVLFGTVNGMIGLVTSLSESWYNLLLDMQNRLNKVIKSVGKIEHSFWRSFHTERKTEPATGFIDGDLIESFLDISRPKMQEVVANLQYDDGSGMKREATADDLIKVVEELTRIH
T2 sequence (P25440 whole entry): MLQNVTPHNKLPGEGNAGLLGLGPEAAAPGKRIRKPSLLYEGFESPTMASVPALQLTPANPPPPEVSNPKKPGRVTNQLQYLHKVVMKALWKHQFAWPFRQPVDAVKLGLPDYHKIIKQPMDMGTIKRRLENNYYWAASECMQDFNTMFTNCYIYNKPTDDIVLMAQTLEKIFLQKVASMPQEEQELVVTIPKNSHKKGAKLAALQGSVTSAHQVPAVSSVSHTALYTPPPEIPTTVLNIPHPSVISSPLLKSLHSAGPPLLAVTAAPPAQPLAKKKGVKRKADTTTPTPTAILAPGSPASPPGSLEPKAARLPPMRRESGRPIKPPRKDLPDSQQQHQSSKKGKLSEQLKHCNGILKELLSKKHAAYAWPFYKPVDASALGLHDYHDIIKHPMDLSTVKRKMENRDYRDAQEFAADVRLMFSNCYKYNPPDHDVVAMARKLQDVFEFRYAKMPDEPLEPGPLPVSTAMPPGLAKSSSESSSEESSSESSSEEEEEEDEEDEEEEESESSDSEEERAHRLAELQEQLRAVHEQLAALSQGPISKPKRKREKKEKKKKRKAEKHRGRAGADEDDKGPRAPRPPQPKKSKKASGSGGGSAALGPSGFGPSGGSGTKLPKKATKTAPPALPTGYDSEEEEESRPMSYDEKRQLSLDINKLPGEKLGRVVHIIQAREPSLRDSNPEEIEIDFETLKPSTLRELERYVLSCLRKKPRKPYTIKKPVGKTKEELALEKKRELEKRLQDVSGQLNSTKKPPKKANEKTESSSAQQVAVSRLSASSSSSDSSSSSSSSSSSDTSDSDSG
T5 sequence (Q15059 whole entry): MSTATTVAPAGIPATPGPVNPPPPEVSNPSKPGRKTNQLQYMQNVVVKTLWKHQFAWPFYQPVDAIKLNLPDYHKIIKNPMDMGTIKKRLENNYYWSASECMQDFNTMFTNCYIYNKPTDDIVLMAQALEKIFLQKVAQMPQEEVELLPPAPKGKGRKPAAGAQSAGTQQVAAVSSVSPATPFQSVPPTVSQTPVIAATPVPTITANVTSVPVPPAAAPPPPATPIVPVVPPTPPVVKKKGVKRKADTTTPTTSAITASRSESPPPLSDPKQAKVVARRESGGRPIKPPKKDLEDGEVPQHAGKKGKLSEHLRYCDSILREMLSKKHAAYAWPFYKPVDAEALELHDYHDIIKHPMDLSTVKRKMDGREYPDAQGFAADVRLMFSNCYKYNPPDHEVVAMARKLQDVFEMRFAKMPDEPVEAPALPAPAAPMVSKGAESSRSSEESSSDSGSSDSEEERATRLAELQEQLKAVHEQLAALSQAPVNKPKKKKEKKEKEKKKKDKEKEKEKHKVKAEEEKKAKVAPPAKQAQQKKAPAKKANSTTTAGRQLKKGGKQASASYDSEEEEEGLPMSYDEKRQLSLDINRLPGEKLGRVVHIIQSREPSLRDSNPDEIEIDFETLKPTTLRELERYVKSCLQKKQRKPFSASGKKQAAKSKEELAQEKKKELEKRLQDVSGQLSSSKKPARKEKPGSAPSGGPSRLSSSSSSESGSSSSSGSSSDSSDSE

As to `Cc1sc2c(c1C)C(c1ccc(Cl)cc1)=N[C@@H](CC(=O)OC(C)(C)C)c1nnc(C)n1-2` [JQ1], the “relative affinity for BRD4BD1 and BRD4BD2” value with BRD4BD1 and BRD4BD2 is “equal affinities”.
On to `Cc1ncsc1-c1ccc(CNC(=O)[C@@H]2C[C@@H](O)CN2C(=O)[C@@H](NC(=O)COCCOCCOCCNC(=O)C[C@@H]2N=C(c3ccc(Cl)cc3)c3c(sc(C)c3C)-n3c(C)nnc32)C(C)(C)C)cc1` [MZ1, reference compound], for which, in experiment [1], the “degradation activity across BET bromodomains” value was “activity on most bromodomains”.
On to `Cc1sc2c(c1C)C(c1ccc(Cl)cc1)=N[C@@H](CC(=O)NCCOc1cccc3c1C(=O)N(C1CCC(=O)NC1=O)C3=O)c1nnc(C)n1-2` (stereo partly shown) [ZXH-2-42], for which, at IKZF1Δ-CRBN, the “IKZF1-CRBN complex formation induced by compound” value is given as “greatly reduced compared to their nitrogen analogs”.
Same read-out and setting: for `COC(=O)C[C@@H]1N=C(c2ccc(Cl)cc2)c2c(sc(C(=O)NCCCCCCCCOc3cccc4c3C(=O)N(C3CCC(=O)NC3=O)C4=O)c2C)-n2c(C)nnc21` (stereo partly shown) [ZXH-2-43] the value was “greatly reduced compared to their nitrogen analogs”; for `COC(=O)C[C@@H]1N=C(c2ccc(Cl)cc2)c2c(sc(C(=O)NCCCCCCCCOc3ccc4c(c3)C(=O)N(C3CCC(=O)NC3=O)C4=O)c2C)-n2c(C)nnc21` (stereo partly shown) [ZXH-2-45], “greatly reduced compared to their nitrogen analogs”.
On to `COC(=O)C[C@@H]1N=C(c2ccc(Cl)cc2)c2c(sc(C(=O)NCCCCNc3cccc4c3C(=O)N(C3CCC(=O)NC3=O)C4=O)c2C)-n2c(C)nnc21` (stereo partly shown) [ZXH-2-184], for which the “selectivity of BRD4 degradation over BRD2 and BRD3” value in experiment [1] is “selective degradation of BRD4; also recorded: selectively targets BRD4 for degradation and spares BRD2 and BRD3”.
On to `COC(=O)C[C@@H]1N=C(c2ccc(Cl)cc2)c2c(sc(C(=O)NCCCCCNc3cccc4c3C(=O)N(C3CCC(=O)NC3=O)C4=O)c2C)-n2c(C)nnc21` (stereo partly shown) [ZXH-03-26], for which, in the experiment with DDB1ΔB-CRBN / BRD4BD1, the “complex formation with CRBN (TR-FRET peak height)” value is recorded as “decreases complex formation with CRBN”. At BRD2 [2], the “degradation of BRD2” value is “inactive”. For the same compound, in experiment [1], the “selectivity of BRD4 degradation over BRD2 and BRD3” value is “selectively targets BRD4 for degradation and spares BRD2 and BRD3”; the “degradation activity across BET bromodomains” value is reported as “activity exclusively on the first bromodomain of BRD4”. Further, in the experiment with BRD3 [3], the “concentrations at which degradation of BRD3 is spared” value is above 10 µM. Moreover, the “degradation of endogenous BRD4” value at BRD4 is listed as “degrades endogenous BRD4 with comparable efficacy compared to the best pan-BET degrader dBET6”. Besides, the “degradation activity on BRD4BD1” value at BRD4BD1 is “active on BRD4BD1”. The DC50 at BRD4BD1 (5 h, read-out: DC50/5h (half-maximal degradation after 5 hours of treatment)) is around 5 nM. Also, the “concentrations at which degradation of BRD2 is spared” value in the experiment with BRD2 [4] was above 10 µM. For the same compound, at BRD3 [5], the “degradation of BRD3” value is “inactive”.
As to `Cc1sc2c(c1C)C(c1ccc(Cl)cc1)=N[C@@H](CC(=O)NCCCCCCCCNC(=O)COc1cccc3c1C(=O)N(C1CCC(=O)NC1=O)C3=O)c1nnc(C)n1-2` (stereo partly shown) [dBET6, reference compound], the “IKZF1-CRBN complex formation induced by compound” value at IKZF1Δ-CRBN was “do not induce IKZF1-CRBN complex formation”. Also, on IKZF1Δ, the “cellular IKZF1 degradation” value is “relatively ineffective at promoting IKZF1 degradation”.
As for `COC(=O)C[C@@H]1N=C(c2ccc(Cl)cc2)c2c(sc(C(=O)NCCCCCCCCNC(=O)COc3cccc4c3C(=O)N(C3CCC(=O)NC3=O)C4=O)c2C)-n2c(C)nnc21` (stereo partly shown) [dBET23], in the experiment on IKZF1, IKZF3 and ZFP91, the “co-degradation of CRBN-lenalidomide neo-substrates IKZF1, IKZF3 and ZFP91” value is reported as “not dBET23 exhibits pronounced co-degradation”.
